Test results published in PubChem BioAssay (NCI).
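Dose response: 5 concentrations. Exposure: 48 h. Format: 96-well plates. Endpoint: linear interpolation; highest concentration if not reached. GI50: concentration for 50% inhibition of growth. At the TGI there is no net growth.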

Columns and labels:
Test in all cases: DTP human tumour cell line panel, 48 h
[1] = system: BT-549 breast
[2] = system: LOX IMVI melanoma
[3] = system: HOP-92 NSCLC
[4] = system: OVCAR-8 ovarian
[5] = system: HCT-15 colon
[6] = system: MOLT-4 leukemia
[7] = system: SF-268 CNS
[8] = system: OVCAR-5 ovarian
[9] = system: NCI-H226 lung
[10] = system: SW-620 colon
[11] = system: MDA-MB-435
[12] = system: K-562 leukemia
[13] = system: UACC-257 melanoma
[14] = system: ACHN renal
[15] = system: SF-539 CNS
[16] = system: NCI/ADR-RES ovarian
[17] = system: SK-MEL-2 melanoma
[18] = system: 786-0 renal
[19] = system: HL-60(TB) leukemia
[20] = system: TK-10 renal
[21] = system: HCT-116 colon
[22] = system: CCRF-CEM leukemia
[23] = system: HT29 colon
[24] = system: RXF 393 renal
[25] = system: NCI-H23 lung
[26] = system: SK-MEL-28 melanoma
[27] = system: SR leukemia
[28] = system: HS 578T breast
[29] = system: SNB-75 CNS
[30] = system: RPMI-8226 leukemia
[31] = system: A498 renal
[32] = system: SF-295 CNS
[33] = system: IGROV1 ovarian
[34] = system: EKVX NSCLC
[35] = system: NCI-H460 lung
[36] = system: SN12C renal
[37] = system: MCF7 breast
[38] = system: MDA-MB-468 breast
[39] = system: DU-145 prostate
[40] = system: OVCAR-4 ovarian
[41] = system: OVCAR-3 ovarian
[42] = system: U251 CNS
[43] = system: HCC-2998 colon
[44] = system: CAKI-1 renal
[45] = system: NCI-H522 lung
[46] = system: KM12 colon
[47] = system: UACC-62 melanoma
[48] = system: SNB-19 CNS
[49] = system: T-47D breast
[50] = system: UO-31 renal
[51] = system: SK-OV-3 ovarian
[52] = system: A549 NSCLC
[53] = system: MDA-MB-231 breast
[54] = system: M14 melanoma
[55] = system: SK-MEL-5 melanoma
[56] = system: HOP-62 NSCLC
[57] = system: COLO 205 colon
[58] = system: PC-3 prostate
[59] = system: MALME-3M melanoma

COc1ccc2oc3c4[nH]c5ccccc5c4c4c(c3c2c1)C(=O)N(C(=O)OC(C)(C)C)C4=O
GI50 [1]: 2.09 µM | TGI [1]: 10.1 µM | GI50 [2]: 3.05 µM | TGI [2]: 14.1 µM | GI50 [3]: 2.64 µM | TGI [3]: 41.3 µM | GI50 [4]: 2.4 µM | TGI [4]: 11.1 µM | GI50 [5]: 2.12 µM | TGI [5]: 10.4 µM | GI50 [6]: 1.47 µM | TGI [6]: 5.01 µM | GI50 [7]: 3.11 µM | TGI [7]: 41.6 µM | GI50 [8]: 2.06 µM | TGI [8]: 31 µM | GI50 [9]: 2.52 µM | TGI [9]: 24.1 µM | GI50 [10]: 2.33 µM | TGI [10]: > 100 µM | GI50 [11]: 1.43 µM | TGI [11]: 18.3 µM | GI50 [12]: 2.79 µM | TGI [12]: > 100 µM | GI50 [13]: 2.49 µM | TGI [13]: 9.3 µM | GI50 [14]: 1.49 µM | TGI [14]: 9.22 µM | GI50 [15]: 3.12 µM | TGI [15]: 11.5 µM | GI50 [16]: 2.6 µM | TGI [16]: 15.4 µM | GI50 [17]: 2.84 µM | TGI [17]: 10.2 µM | GI50 [18]: 3.65 µM | TGI [18]: > 100 µM | GI50 [19]: 2.28 µM | TGI [19]: 9.07 µM | GI50 [20]: 2.56 µM | TGI [20]: > 100 µM | GI50 [21]: 3.06 µM | TGI [21]: 24.2 µM | GI50 [22]: 2.65 µM | TGI [22]: > 100 µM | GI50 [23]: 2.98 µM | TGI [23]: > 100 µM | GI50 [24]: 3.12 µM | TGI [24]: 19.2 µM | GI50 [25]: 2.1 µM | TGI [25]: 10.6 µM | GI50 [26]: 1.67 µM | TGI [26]: 5.18 µM | GI50 [27]: 1.59 µM | TGI [27]: > 100 µM | GI50 [28]: 2.5 µM | TGI [28]: 12.4 µM | GI50 [29]: 3.07 µM | TGI [29]: 33.8 µM | GI50 [30]: 1.83 µM | TGI [30]: 8.29 µM | GI50 [31]: 1.47 µM | TGI [31]: 9.77 µM | GI50 [32]: 2.62 µM | TGI [32]: 10.9 µM | GI50 [33]: 2.4 µM | TGI [33]: 27.6 µM | GI50 [34]: 3.33 µM | TGI [34]: 32.2 µM | GI50 [35]: 2.32 µM | TGI [35]: > 100 µM | GI50 [36]: 2.25 µM | TGI [36]: 37.2 µM | GI50 [37]: 1.43 µM | TGI [37]: 12.8 µM | GI50 [38]: 2.84 µM | TGI [38]: 22 µM | GI50 [39]: 3.26 µM | TGI [39]: > 100 µM | GI50 [40]: 4.18 µM | TGI [40]: 89.2 µM | GI50 [41]: 3.72 µM | TGI [41]: 16.7 µM | GI50 [42]: 2.86 µM | TGI [42]: 28.2 µM | GI50 [43]: 3.98 µM | TGI [43]: > 100 µM | GI50 [44]: 2.59 µM | TGI [44]: 37.4 µM | GI50 [45]: 2.2 µM | TGI [45]: 11.6 µM | GI50 [46]: 0.578 µM | TGI [46]: 9.28 µM | GI50 [47]: 2.4 µM | TGI [47]: 11.9 µM | GI50 [48]: 4.21 µM | TGI [48]: > 100 µM | GI50 [49]: 1.28 µM | TGI [49]: 7.23 µM | GI50 [50]: 0.9 µM | TGI [50]: 25.8 µM | GI50 [51]: 2.59 µM | TGI [51]: 24.3 µM | GI50 [52]: 2.84 µM | TGI [52]: 49.3 µM | GI50 [53]: 6.45 µM | TGI [53]: > 100 µM | GI50 [54]: 1.22 µM | TGI [54]: 5 µM | GI50 [55]: 4.09 µM | TGI [55]: 16.1 µM | GI50 [56]: 2.45 µM | TGI [56]: 12.2 µM | GI50 [57]: 3.03 µM | TGI [57]: 10.3 µM | GI50 [58]: 1.88 µM | TGI [58]: > 100 µM | GI50 [59]: 1.91 µM | TGI [59]: 11.3 µM
